Results as given in US9733254B2, “Methods and apparatus for the in vitro modelling of drug administration” (THE UNIVERSITY OF BATH, priority 2012, dated 2017).

Assays:
[1] = Release of excipient from the simulated injection site, HPLC of bath aliquots; format: in vitro ADME; conditions: excipient of generic insulin formulation, 0.5 ml injected; buffer in the cassette
Description: Shortly after injection, the protein solubility level decreased as indicated by the drop in % T. As the environment within the cassette equilibrated with the surrounding physiological conditions and the pH shifted towards 7.4, the protein re-solubilised as indicated by the increase in the % T level. The release profile of an excipient, m-cresol, from the injection site was determined from aliquots taken from the surrounding buffer bath at different time points by HPLC following the method specified in “Biodegradation characterisation and kinetics of m-cresol by Lysinibacillus cresolivorans” in Water SA (Online) vol. 37 no. 1 Pretoria January 2011.

[2] = Diffusion through the DERMAROLLER-modified 14000 MWCO dialysis membrane; format: physicochemical; conditions: modified membrane with cut off of 14000 MWCO
Text: As an example, the membrane used in the system was Biodesing dialysis tubing with a molecular weight cut off diameter of 14000 Da. A 3 cm piece of the tubing was cut and the edges were removed to form two sheets of membrane. These sheets of membrane, whilst not separated from each other, were fully hydrated by soaking in deionised water and subsequently placed on Styrofoam covered with aluminium foil. The membrane permeability was then modified using a DERMAROLLER microneedle device. The membrane used can be transparent. […] In contrast, for rhodamine (MW~500 Da) the diffusion through the same membrane took place in one phase. The holes can be made with a DERMAROLLER microneedle device, or with any other method producing size and spatial distribution of holes suitable for the application. The diameter of the holes should be between 0.1 and a 10 micrometers and the spacing between any two adjacent holes between 0.1 and 10 mm.
As an example (FIG. 4), for a series of fluorescent small organic molecules (methylene blue and rhodamine) and fluorescently labelled dextrans with molecular weights between 4 kDa and 2 MDa, the rate constant of diffusion (k, [min^−1]) through the membranes after the modification followed the equation k=−0.01362 log10 (MW of the compound)+0.06065. (R^2=0.9996)

| Compound | time until all the excipient in the injected formulation has left the injection site [1] | mode of diffusion through the modified membrane [2] |
| --- | --- | --- |
| Cc1cccc(O)c1 [m-cresol] | less than 50 minutes | – |
| CN(C)c1ccc2nc3ccc(=[N+](C)C)cc-3sc2c1 [methylene blue] | – | two phase diffusion |
| rhodamine | – | one phase |
